Where a name gives a salt, the structure may show the parent alone.

The subject of the first test is recombinant NL4-3 virus (Renilla luciferase in nef, Gag P373S). The test is described as follows: HIV Cell Culture Assay (luciferase reporter virus in MT-2 cells). Conditions: NL43. The test is classed as cell-based. A digest of the protocol: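 MT-2 cells in RPMI 1640 with 10% heat-inactivated FBS were infected with the reporter virus, made by transfecting the proviral clone into 293T cells, and cultured 4-5 days with serial inhibitor dilutions. Antiviral activity was quantified from Renilla luciferase activity measured in lysed cells.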
Regarding `C=C(C)[C@@H]1CC[C@]2(C(=O)NCCN3CCS(=O)(=O)CC3)CC[C@]3(C)[C@H](CC[C@@H]4[C@@]5(C)CC=C(c6ccc(B(O)O)cc6)C(C)(C)[C@@H]5CC[C@]43C)[C@@H]12` [Example 130, (4-((1R,3aS,5aR,5bR,7aR,11aS,11bR,13aR,13bR)-3a-((2-(1,1-dioxidothiomorpholino)ethyl)carbamoyl)-5a,5b,8,8,11a-pentamethyl-1-(prop-1-en-2-yl)-2,3,3a,4,5,5a,5b,6,7,7a,8,11,11a,11b,12,13,13a,13b-octadecahydro-1H-cyclopenta[a]chrysen-9-yl)phenyl)boronic acid, TFA], the 50% effective concentration (EC50) (commonly the concentration needed to bring the measured effect to its halfway point) was 13.4 nM.

In the case of `C=C(C)[C@@H]1CC[C@]2(C(=O)NCCNc3ccc(C(=O)O)cc3)CC[C@]3(C)[C@H](CC[C@@H]4[C@@]5(C)CC=C(c6ccc(C(=O)O)cc6)C(C)(C)[C@@H]5CC[C@]43C)[C@@H]12` [Example 114, 4-(2-((1R,3aS,5aR,5bR,7aR,11aS,11bR,13aR,13bR)-9-(4-carboxyphenyl)-5a,5b,8,8,11a-pentamethyl-1-(prop-1-en-2-yl)-2,3,3a,4,5,5a,5b,6,7,7a,8,11,11a,11b,12,13,13a,13b-octadecahydro-1H-cyclopenta[a]chrysene-3a-carboxamido)ethylamino)benzoic acid], the EC50 came to 17.6 nM.

The same test, now with this note: NL43, read-out: EC50 Group.
Consider `C=C(C)[C@@H]1CC[C@]2(C(=O)NCCCN3CCS(=O)(=O)CC3)CC[C@]3(C)[C@H](CC[C@@H]4[C@@]5(C)CC=C(c6ccc(C(=O)O)cc6)C(C)(C)[C@@H]5CC[C@]43C)[C@@H]12` [Example 85, 4-((1R,3aS,5aR,5bR,7aR,11aS,11bR,13aR,13bR)-3a-((3-(1,1-dioxido-4-thiomorpholinyl)propyl)carbamoyl)-1-isopropenyl-5a,5b,8,8,11a-pentamethyl-2,3,3a,4,5,5a,5b,6,7,7a,8,11,11a,11b,12,13,13a,13b-octadecahydro-1H-cyclopenta[a]chrysen-9-yl)benzoic acid], for which the EC50 is less than 100 nM. In the case of `C=C(C)[C@@H]1CC[C@]2(C(=O)NCCCN(CCC(=O)O)CCC(=O)O)CC[C@]3(C)[C@H](CC[C@@H]4[C@@]5(C)CC=C(c6ccc(C(=O)O)cc6)C(C)(C)[C@@H]5CC[C@]43C)[C@@H]12` [Example 100, 3,3′-(3-((1R,3aS,5aR,5bR,7aR,11aS,11bR,13aR,13bR)-9-(4-carboxyphenyl)-5a,5b,8,8,11a-pentamethyl-1-(prop-1-en-2-yl)-2,3,3a,4,5,5a,5b,6,7,7a,8,11,11a,11b,12,13,13a,13b-octadecahydro-1H-cyclopenta[a]chrysene-3a-carboxamido)propylazanediyl)dipropanoic acid], the EC50 was more than 100 nM. As to `C=C(C)[C@@H]1CC[C@]2(C(=O)NCc3nc4ccccc4s3)CC[C@]3(C)[C@H](CC[C@@H]4[C@@]5(C)CC=C(c6ccc(C(=O)O)cc6)C(C)(C)[C@@H]5CC[C@]43C)[C@@H]12` [Example 45, 4-((1R,3aS,5aR,5bR,7aR,11aS,11bR,13aR,13bR)-3a-(benzo[d]thiazol-2-ylmethylcarbamoyl)-5a,5b,8,8,11a-pentamethyl-1-(prop-1-en-2-yl)-2,3,3a,4,5,5a,5b,6,7,7a,8,11,11a,11b,12,13,13a,13b-octadecahydro-1H-cyclopenta[a]chrysen-9-yl)benzoic acid], the EC50 is less than 100 nM. Still for that read-out and setting: the same measure for `C=C(C)[C@@H]1CC[C@]2(C(=O)N3CCCC3C(=O)O)CC[C@]3(C)[C@H](CC[C@@H]4[C@@]5(C)CC=C(c6ccc(C(=O)O)cc6)C(C)(C)[C@@H]5CC[C@]43C)[C@@H]12` (stereo partly drawn) [Example 128, 1-((1R,3aS,5aR,5bR,7aR,11aS,11bR,13aR,13bR)-9-(4-carboxyphenyl)-5a,5b,8,8,11a-pentamethyl-1-(prop-1-en-2-yl)-2,3,3a,4,5,5a,5b,6,7,7a,8,11,11a,11b,12,13,13a,13b-octadecahydro-1H-cyclopenta[a]chrysene-3a-carbonyl)pyrrolidine-2-carboxylic acid]: less than 100 nM.

For the compound `C=C(C)[C@@H]1CC[C@]2(C(=O)NCCN3CCC(F)(F)CC3)CC[C@]3(C)[C@H](CC[C@@H]4[C@@]5(C)CC=C(c6ccc(C(=O)O)c(F)c6)C(C)(C)[C@@H]5CC[C@]43C)[C@@H]12` [Example 117, 4-((1R,3aS,5aR,5bR,7aR,11aS,11bR,13aR,13bR)-3a-(2-(4,4-difluoropiperidin-1-yl)ethylcarbamoyl)-5a,5b,8,8,11a-pentamethyl-1-(prop-1-en-2-yl)-2,3,3a,4,5,5a,5b,6,7,7a,8,11,11a,11b,12,13,13a,13b-octadecahydro-1H-cyclopenta[a]chrysen-9-yl)-2-fluorobenzoic acid], the EC50 was less than 100 nM. `C=C(C)[C@@H]1CC[C@]2(C(=O)NCCN(CC)CC(=O)O)CC[C@]3(C)[C@H](CC[C@@H]4[C@@]5(C)CC=C(c6ccc(C(=O)O)cc6)C(C)(C)[C@@H]5CC[C@]43C)[C@@H]12` [Example 83, 4-((1R,3aS,5aR,5bR,7aR,11aS,11bR,13aR,13bR)-3a-(2-((carboxymethyl)(ethyl)amino)ethylcarbamoyl)-5a,5b,8,8,11a-pentamethyl-1-(prop-1-en-2-yl)-2,3,3a,4,5,5a,5b,6,7,7a,8,11,11a,11b,12,13,13a,13b-octadecahydro-1H-cyclopenta[a]chrysen-9-yl)benzoic acid]: the half-maximal effective concentration (EC50) is less than 100 nM.

Consider `C=C(C)[C@@H]1CC[C@]2(C(=O)N(C)Cc3ccccc3)CC[C@]3(C)[C@H](CC[C@@H]4[C@@]5(C)CC=C(c6ccc(C(=O)O)cc6)C(C)(C)[C@@H]5CC[C@]43C)[C@@H]12` [Example 18, 4-((1R,3aS,5aR,5bR,7aR,11aS,11bR,13aR,13bR)-3a-(benzyl(methyl)carbamoyl)-5a,5b,8,8,11a-pentamethyl-1-(prop-1-en-2-yl)-2,3,3a,4,5,5a,5b,6,7,7a,8,11,11a,11b,12,13,13a,13b-octadecahydro-1H-cyclopenta[a]chrysen-9-yl)benzoic acid], for which the concentration for a half-maximal effect (EC50) was more than 100 nM. In the case of `C=C(C)[C@@H]1CC[C@]2(C(=O)NCCN(CC)CCO)CC[C@]3(C)[C@H](CC[C@@H]4[C@@]5(C)CC=C(c6ccc(C(=O)O)cc6)C(C)(C)[C@@H]5CC[C@]43C)[C@@H]12` [Example 72, 4-((1R,3aS,5aR,5bR,7aR,11aS,11bR,13aR,13bR)-3a-(2-(ethyl(2-hydroxyethyl)amino)ethylcarbamoyl)-5a,5b,8,8,11a-pentamethyl-1-(prop-1-en-2-yl)-2,3,3a,4,5,5a,5b,6,7,7a,8,11,11a,11b,12,13,13a,13b-octadecahydro-1H-cyclopenta[a]chrysen-9-yl)benzoic acid], the concentration giving a half-maximal response (EC50) is less than 100 nM. For the compound `C=C(C)[C@@H]1CC[C@]2(C(=O)NCCN(CCO)CCO)CC[C@]3(C)[C@H](CC[C@@H]4[C@@]5(C)CC=C(c6ccc(C(=O)O)cc6)C(C)(C)[C@@H]5CC[C@]43C)[C@@H]12` [Example 76, 4-((1R,3aS,5aR,5bR,7aR,11aS,11bR,13aR,13bR)-3a-(2-(bis(2-hydroxyethyl)amino)ethylcarbamoyl)-5a,5b,8,8,11a-pentamethyl-1-(prop-1-en-2-yl)-2,3,3a,4,5,5a,5b,6,7,7a,8,11,11a,11b,12,13,13a,13b-octadecahydro-1H-cyclopenta[a]chrysen-9-yl)benzoic acid], the EC50 was less than 100 nM.

As to `C=C(C)[C@@H]1CC[C@]2(C(=O)NCc3ccoc3)CC[C@]3(C)[C@H](CC[C@@H]4[C@@]5(C)CC=C(c6ccc(C(=O)O)cc6)C(C)(C)[C@@H]5CC[C@]43C)[C@@H]12` [Example 126, 4-((1R,3aS,5aR,5bR,7aR,11aS,11bR,13aR,13bR)-3a-(furan-3-ylmethylcarbamoyl)-5a,5b,8,8,11a-pentamethyl-1-(prop-1-en-2-yl)-2,3,3a,4,5,5a,5b,6,7,7a,8,11,11a,11b,12,13,13a,13b-octadecahydro-1H-cyclopenta[a]chrysen-9-yl)benzoic acid], the concentration for a half-maximal effect (EC50) is less than 100 nM.

Consider `C[C@H]1[C@H](C)CC[C@]2(C(=O)NCCN(C)C)CC[C@]3(C)C(=CC[C@@H]4[C@@]5(C)CC=C(c6ccc(C(=O)O)cc6)C(C)(C)[C@@H]5CC[C@]43C)[C@H]12` [Example A1, 4-((4aR,6aR,6bS,8aS,11R,12S,12aS,14aR,14bS)-8a-(2-(dimethylamino)ethylcarbamoyl)-4,4,6a,6b,11,12,14b-heptamethyl-1,4,4a,5,6,6a,6b,7,8,8a,9,10,11,12,12a,14,14a,14b-octadecahydropicen-3-yl)benzoic acid], for which the EC50 was less than 100 nM.

In the case of `C=C(C)[C@@H]1CC[C@]2(C(=O)NCCN(C)C)CC[C@]3(C)[C@H](CC[C@@H]4[C@@]5(C)CC=C(c6ccc(C(=O)O)s6)C(C)(C)[C@@H]5CC[C@]43C)[C@@H]12` [Example 66, 5-((1R,3aS,5aR,5bR,7aR,11aS,11bR,13aR,13bR)-3a-(2-(dimethylamino)ethylcarbamoyl)-5a,5b,8,8,11a-pentamethyl-1-(prop-1-en-2-yl)-2,3,3a,4,5,5a,5b,6,7,7a,8,11,11a,11b,12,13,13a,13b-octadecahydro-1H-cyclopenta[a]chrysen-9-yl)thiophene-2-carboxylic acid], the EC50 is less than 100 nM. `C=C(C)[C@@H]1CC[C@]2(C(=O)NCCN(C)C)CC[C@]3(C)[C@H](CC[C@@H]4[C@@]5(C)CC=C(c6ccc(C(=O)O)c(C(=O)O)c6)C(C)(C)[C@@H]5CC[C@]43C)[C@@H]12` [Example 113, 4-((1R,3aS,5aR,5bR,7aR,11aS,11bR,13aR,13bR)-3a-(2-(dimethylamino)ethylcarbamoyl)-5a,5b,8,8,11a-pentamethyl-1-(prop-1-en-2-yl)-2,3,3a,4,5,5a,5b,6,7,7a,8,11,11a,11b,12,13,13a,13b-octadecahydro-1H-cyclopenta[a]chrysen-9-yl)phthalic acid]: the EC50 is more than 100 nM.

(Values after US8802661B2, “C-28 amides of modified C-3 betulinic acid derivatives as HIV maturation inhibitors” (priority 2010, dated 2014).)
